How the values were obtained:
[1] = test system: M3K2/M3K3 (Mitogen-activated protein kinase kinase kinase 2); assay: SILAC LC-MS ATP acyl phosphate probe competition, native kinases in HEK293T; type: binding, Homo sapiens; conditions: site Lys2; ATP 1 mM; Ketanserin, Ritanserin 100 μM; RF001 1 mM
Protocol: Proteomes were diluted to 2 mg/ml in kinase buffer. The light and heavy proteomes (0.5 mg, 250 μL total reaction volume) were pre-treated with vehicle or compound, respectively (5 μL, DMSO (light) or 50× stock in DMSO (heavy)), mixed gently, and incubated at 25° C. for 30 min. […] After incubation, matched light and heavy proteomes were transferred and mixed in a 1:1 ratio in a two-dram vial containing 4:1:3 MeOH/CHCl3/H2O (2 mL MeOH, 500 AL CHCl3, 1.5 mL H2O) for extraction of proteins to remove excess probe, quickly vortexed, and centrifuged at 1,400×g for 3 min to pellet protein. Organic and aqueous layers were removed using a Pasteur pipette, and the protein pellet was transferred to a screw-top tube in 600 μL MeOH. A second extraction was performed by adding CHCl3 (150 μL) and H2O (600 μL) to each sample, vortexed, and centrifuged at 1,400×g for 3 min to pellet protein. Organic and aqueous layers were removed by pipetting. MeOH added to pellet (600 μL) and pellets were re-suspended by sonication (3×1 sec pulse, 20% amplitude) for a final extraction. Samples were then centrifuged at 17,000×g for 5 min to pellet protein and MeOH was removed by pipetting. The pellets were re-suspended in 10 M urea/25 mM ammonium bicarbonate ([…]), brought to a final volume of 1 mL with 25 mM ammonium bicarbonate, reduced with 10 mM DTT for 15 min at 65° C. allowed to cool, and then alkylated with 40 mM iodoacetamide for 30 min at 25° C. in the dark. To desalt the samples, each was transferred to a two-dram glass vial, and to the vial 4:1:2 MeOH/CHCl3/H2O (2 mL MeOH, 500 AL CHCl3, 1 mL H2O) was added. The vials were vortexed quickly, spun at 1.400×g for 3 min to pellet protein, and aqueous and organic layers were removed using a Pasteur pipette. The resulting protein pellet was transferred to a screw-top tube in 600 μL MeOH, and then CHCl3 (150 μL) and HO (600 μL) were added to extract protein a second time. […]
(§1) The peptide samples were analyzed by liquid chromatography-mass spectrometry. […]

[2] = biological target: Gamma (DGK gamma) (Homo sapiens, UniProt P49619); assay: DGK isoform % Activity screen; type: biochemical
Sequence of Gamma (DGK gamma) (P49619 whole entry, canonical isoform): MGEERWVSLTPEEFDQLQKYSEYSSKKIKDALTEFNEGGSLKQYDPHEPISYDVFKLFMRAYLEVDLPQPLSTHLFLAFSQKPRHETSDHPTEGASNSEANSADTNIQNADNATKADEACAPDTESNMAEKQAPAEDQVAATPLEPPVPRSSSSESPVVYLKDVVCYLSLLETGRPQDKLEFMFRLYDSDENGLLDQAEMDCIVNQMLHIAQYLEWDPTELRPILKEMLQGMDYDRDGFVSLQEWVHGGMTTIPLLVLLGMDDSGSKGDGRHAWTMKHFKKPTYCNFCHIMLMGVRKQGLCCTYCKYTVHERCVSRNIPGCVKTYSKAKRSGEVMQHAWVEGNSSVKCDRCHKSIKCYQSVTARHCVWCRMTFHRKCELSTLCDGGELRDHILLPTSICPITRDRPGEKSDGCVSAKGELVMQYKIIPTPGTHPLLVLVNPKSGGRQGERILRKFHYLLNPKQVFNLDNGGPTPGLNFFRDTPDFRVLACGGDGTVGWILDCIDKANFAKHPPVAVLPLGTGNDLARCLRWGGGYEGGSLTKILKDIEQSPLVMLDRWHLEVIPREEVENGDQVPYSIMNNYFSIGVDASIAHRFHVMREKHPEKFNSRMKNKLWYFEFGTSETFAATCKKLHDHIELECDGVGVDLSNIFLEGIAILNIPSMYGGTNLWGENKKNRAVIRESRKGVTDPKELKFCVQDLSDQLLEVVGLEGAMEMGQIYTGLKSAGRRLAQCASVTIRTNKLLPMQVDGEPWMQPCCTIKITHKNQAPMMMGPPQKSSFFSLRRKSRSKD

[3] = test system: recombinant DGKs and native kinases in HEK293T proteomes; assay: Quantitative chemical proteomics, summary over kinases; type: binding; conditions: for number of kinase targets that show SR≥2: recombinant DGKs and native kinases
Protocol: Proteomes were diluted to 2 mg/ml in kinase buffer. The light and heavy proteomes (0.5 mg, 250 μL total reaction volume) were pre-treated with vehicle or compound, respectively (5 μL, DMSO (light) or 50× stock in DMSO (heavy)), mixed gently, and incubated at 25° C. for 30 min. […] After incubation, matched light and heavy proteomes were transferred and mixed in a 1:1 ratio in a two-dram vial containing 4:1:3 MeOH/CHCl3/H2O (2 mL MeOH, 500 AL CHCl3, 1.5 mL H2O) for extraction of proteins to remove excess probe, quickly vortexed, and centrifuged at 1,400×g for 3 min to pellet protein. Organic and aqueous layers were removed using a Pasteur pipette, and the protein pellet was transferred to a screw-top tube in 600 μL MeOH. A second extraction was performed by adding CHCl3 (150 μL) and H2O (600 μL) to each sample, vortexed, and centrifuged at 1,400×g for 3 min to pellet protein. Organic and aqueous layers were removed by pipetting. MeOH added to pellet (600 μL) and pellets were re-suspended by sonication (3×1 sec pulse, 20% amplitude) for a final extraction. Samples were then centrifuged at 17,000×g for 5 min to pellet protein and MeOH was removed by pipetting. The pellets were re-suspended in 10 M urea/25 mM ammonium bicarbonate ([…]), brought to a final volume of 1 mL with 25 mM ammonium bicarbonate, reduced with 10 mM DTT for 15 min at 65° C. allowed to cool, and then alkylated with 40 mM iodoacetamide for 30 min at 25° C. in the dark. To desalt the samples, each was transferred to a two-dram glass vial, and to the vial 4:1:2 MeOH/CHCl3/H2O (2 mL MeOH, 500 AL CHCl3, 1 mL H2O) was added. The vials were vortexed quickly, spun at 1.400×g for 3 min to pellet protein, and aqueous and organic layers were removed using a Pasteur pipette. The resulting protein pellet was transferred to a screw-top tube in 600 μL MeOH, and then CHCl3 (150 μL) and HO (600 μL) were added to extract protein a second time. The samples were vortexed quickly, centrifuged at 1,400×g to pellet protein, and the aqueous and organic layers were removed by pipetting. Resulting protein pellet was suspended in MeOH (600 μL) via sonication (3×1 sec pulse, 20% amplitude), centrifuged at 17,000×g for 5 min to pellet protein, and MeOH removed by pipetting. Protein pellets were then re-suspended in 25 mM ammonium bicarbonate (500 μL) and digested with 7.5 μg Trypsin/Lys-C(Promega, 15 μL, 0.5 μg/μL) for 3 h at 37° C. Avidin-agarose beads (Thermo Scientific Pierce, 100 AL aliquot per sample) were washed three times by adding 10 mL DPBS, centrifuged at 1,400×g for 1 min, and decanting. This wash step was repeated for a total of 3 times. Digested protein samples were mixed with washed avidin beads (100 μL) and brought to a volume of 5.5 mL with DPBS in a 15 mL conical and rotated for 1 h to enrich samples for the covalent desthiobiotin modification. The beads were washed with 25 mM ammonium bicarbonate (3× with 10 mL, centrifuge at 1,400×g for 3 min, decant) and then H2O (3× with 10 mL, centrifuge at 1,400×g for 3 min, decant). Washed beads were then transferred to a low-bind microfuge tube, centrifuged at 1,400×g for 3 min, allowed to rest for 1 min to settle beads, and then excess H2O was removed carefully using a gel-loading pipette tip. To elute peptides, 100 μL of elution buffer (50% acetonitrile, ACN; 0.1% formic acid) was added to each sample and incubated for 3 min. Beads were spun down at 1.400×g for 3 min, allowed to rest for 1 min to settle beads, and then 75 μL of peptide-containing supernatant was removed carefully using a gel-loading pipette tip and transferred to a new low bind centrifuge tube. This step was repeated two more times with 75 μL of elution buffer and all eluent were collected into the same centrifuge tube (˜225 μL total). Peptides were dried on a speed vacuum, resulting peptide samples acidified in 5% (v/v) formic acid, and stored at −80° C. until analysis.
as §1

| SILAC ratio, M3K2/M3K3 probe-modified peptide [1] | activity at 100 µM [2] [%] | activity at 1000 µM ([2]; read-out: 1 mM % Activity, Gamma) [%] | kinase targets with potent activity (SR≥5) ([3]; all detectable kinases) | SMILES | competition at probe-binding sites ([3]; 100 μM) | average SILAC ratio at all detected probe-modified sites of other DGK subtypes ([3]; 1 mM) | number of kinase targets that show SR≥2 [3] | SILAC ratio at all binding sites detected, other DGK isoforms ([3]; 100 μM) |
| --- | --- | --- | --- | --- | --- | --- | --- | --- |
| 1.1 | 24 |  |  | O=C(c1ccc(F)cc1)C1CCN(CCn2c(=O)[nH]c3ccccc3c2=O)CC1 [Ketanserin] | negligible competition at all probe-binding sites |  |  |  |
| 1.0 | 82 | 5 | a single kinase target | Fc1ccc(C(=C2CCNCC2)c2ccc(F)cc2)cc1 [RF001, 4-(Bis(4-fluorophenyl)methylene) piperidine] |  | ~1 | 3 |  |

| SMILES | SILAC ratio, M3K2/M3K3 probe-modified peptide [1] | activity at 100 µM [2] [%] | activity at 1000 µM ([2]; read-out: 1 mM % Activity, Gamma) [%] | kinase targets with potent activity (SR≥5) ([3]; all detectable kinases) | competition at probe-binding sites ([3]; 100 μM) | average SILAC ratio at all detected probe-modified sites of other DGK subtypes ([3]; 1 mM) | number of kinase targets that show SR≥2 [3] | SILAC ratio at all binding sites detected, other DGK isoforms ([3]; 100 μM) |
| --- | --- | --- | --- | --- | --- | --- | --- | --- |
| Cc1nc2sccn2c(=O)c1CCN1CCC(=C(c2ccc(F)cc2)c2ccc(F)cc2)CC1 [Ritanserin] | 1.2 | 55 |  |  |  |  | 25 | < 2 |

— patent US12643867B2, “Compositions and uses thereof” (University of Virginia Patent Foundation, priority 2017, dated 2026)
